This passage reports IC50 results from US8980911B2, “Heterocyclic compounds as protein kinase inhibitors” (Daiichi Sankyo Company, Limited, priority 2011, dated 2015).

Type in all cases: biochemical
In one assay the target is T1, JAK3 (Homo sapiens, UniProt P52333).
T1 construct: All enzymes only contain the catalytic domain; His (N); purchased Carna Bioscience, Inc; host or cells: baculovirus expression system
As to the kind of experiment: In vitro enzyme assay (cell-free HTRF kinase assay), JAK3. The settings on record: catalytic domain, His-tag; ATP 3 μM, SRCtide 100 nM, reaction 30 min. The protocol:
(§1) Kinase buffer [50 mM HEPES (pH 7.5), 1 mM EGTA, 10 mM MgCl2, 2 mM DTT and 0.01% Tween-20) was prepared and dilutions of a compound of formula (I) and other reagents were subsequently made in it. Two times concentrated compound of formula (I) solution: A compound of formula (I) was diluted to 100-fold final concentration in DMSO, followed by 50-fold dilution with Kinase buffer (1% DMSO final concentration). Four times concentrated Substrate/ATP mix solution: Biotin-SRCtide and ATP were diluted to 4-fold final concentration in Kinase buffer. Biotin-SRCtide solution (purchased from Anaspec) was mixed with ATP solution (1:1). Four times concentrated Enzyme solution: JAK1 or JAK2 or JAK3 or TYK2 enzyme [Human baculo virus expressed JAK1, JAK2, JAK3 and TYK2 were purchased from Carna Bioscience, Inc. All enzymes only contain the catalytic domain. JAK1 (aa 850-1154) and TYK2 (aa 871-1187) are expressed with an N-terminally fused GST-tag, and JAK2 and JAK3 with an N-terminally fused His-tag] was diluted to 4-fold final concentration in Kinase buffer and always kept on ice. Detection buffer: LANCE detection buffer (10 times concentrated) was diluted 10-fold in H2O. Four times concentrated stop solution: EDTA was diluted to a concentration of 40 mM in detection buffer. Four times concentrated ULight/Eu-antibody (from Perkin Elmer) mix solution: ULight-Streptavidin was diluted to a concentration of 100 nM (25 ng/mL final concentrations) and Eu-anti-phospho-Tyrosine (PT66) (from Perkin Elmer) was diluted to a concentration of 8 nM (2 ng/mL final concentration) in detection buffer.
(§2) Cell-free in vitro kinase assay was performed in 384 well plates. Two times concentrated compound solution (5 μL) was pipetted into a HTS 384SV Small Volume Plate. Four times concentrated Substrate/ATP mix (2.5 μL) solution was added along with 4 times concentrated Enzyme solution (2.5 μL). Plate was covered with TopSeal-A and incubated at room temperature for indicated time (Table 3). Four times concentrated Stop solution (5 μL, 10 mM final concentration) was added and incubated for 5 minutes at room temperature. Four times concentrated ULight/Eu-antibody mix solution (5 μL) was added and again plate was covered with TopSeal and incubated overnight at 4° C. TopSeal was removed and HTRF signal was measured at 615 nm and […] (excitation at 320 or 340 nm) on Tecan M1000 Multi mode plate reader. Ratio (665 nm/615 nm)×10^4 was calculated and IC50 values were deduced from Graph-pad prism 4.2.
Background: TR-FRET usually uses a lanthanide donor and a delayed reading to cut background.

A further assay has as its target T2, JAK2 (Homo sapiens, UniProt O60674).
T2 construct: All enzymes only contain the catalytic domain; His (N); purchased Carna Bioscience, Inc; host or cells: baculovirus expression system
As to the kind of experiment: In vitro enzyme assay (cell-free HTRF kinase assay), JAK2. The settings on record: catalytic domain, His-tag; ATP 10 μM, SRCtide 25 nM, reaction 30 min. The protocol:
as §1, §2

The next assay deals with T3, JAK1 (Homo sapiens, UniProt P23458).
T3 construct: JAK1 (aa 850-1154) and TYK2 (aa 871-1187) are expressed with an N-terminally fused GST-tag; GST (N); purchased Carna Bioscience, Inc; host or cells: baculovirus expression system
As to the kind of experiment: In vitro enzyme assay (cell-free HTRF kinase assay), JAK1. The following applies: catalytic domain aa 850-1154, GST-tag; ATP 60 μM, SRCtide 400 nM, reaction 120 min. How it is done:
as §1, §2

The IC50 is the concentration that gives 50% inhibition.

T1 sequence (P52333 822-1111 limits assumed): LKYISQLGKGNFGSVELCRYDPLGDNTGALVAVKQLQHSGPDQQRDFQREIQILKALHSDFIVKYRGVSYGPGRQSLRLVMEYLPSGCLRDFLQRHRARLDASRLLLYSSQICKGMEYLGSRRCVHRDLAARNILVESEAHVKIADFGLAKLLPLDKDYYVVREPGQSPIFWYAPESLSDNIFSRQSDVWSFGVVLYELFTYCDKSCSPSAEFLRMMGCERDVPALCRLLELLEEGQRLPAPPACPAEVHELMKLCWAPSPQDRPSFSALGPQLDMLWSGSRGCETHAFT
T3 sequence (P23458 850-1154): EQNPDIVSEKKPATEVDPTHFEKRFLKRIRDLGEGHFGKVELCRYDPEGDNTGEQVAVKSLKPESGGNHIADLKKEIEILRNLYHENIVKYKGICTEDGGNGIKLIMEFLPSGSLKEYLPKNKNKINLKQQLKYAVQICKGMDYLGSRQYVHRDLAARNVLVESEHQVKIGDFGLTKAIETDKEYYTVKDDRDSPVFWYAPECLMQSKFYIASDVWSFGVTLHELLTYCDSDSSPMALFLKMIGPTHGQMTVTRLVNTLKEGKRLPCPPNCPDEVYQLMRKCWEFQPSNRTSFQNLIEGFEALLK
T2 sequence (O60674 849-1124 limits assumed): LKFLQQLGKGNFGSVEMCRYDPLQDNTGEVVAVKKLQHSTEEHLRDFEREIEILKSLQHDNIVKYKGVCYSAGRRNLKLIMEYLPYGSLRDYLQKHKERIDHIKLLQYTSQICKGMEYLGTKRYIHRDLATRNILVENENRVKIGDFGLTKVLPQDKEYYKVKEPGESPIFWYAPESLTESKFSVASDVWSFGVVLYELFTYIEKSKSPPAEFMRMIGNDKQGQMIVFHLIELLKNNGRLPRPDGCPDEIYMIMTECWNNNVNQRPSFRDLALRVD

Consider `Nc1cc(Cl)c(C(=O)c2c[nH]c3cnccc23)c(Cl)c1` [Compound No. 3, (4-Amino-2,6-dichlorophenyl)(1H-pyrrolo[2,3-c]pyridin-3-yl)methanone], for which the half-maximal inhibitory concentration (IC50) at JAK3 was under 1000 nM; on JAK2, under 500 nM; against JAK1 it was under 1000 nM.
`CNC(=O)c1cc(Cl)c(C(=O)c2c[nH]c3c(NC(=O)C4CC4)nccc23)c(Cl)c1` [Compound No. 12, 3,5-Dichloro-4-({7-[(cyclopropylcarbonyl)amino]-1H-pyrrolo[2,3-c]pyridin-3-yl}carbonyl)-N-methylbenzamide]: the IC50 against JAK3 is under 100 nM; on JAK2, under 500 nM; on JAK1, under 500 nM.
As for `Cc1noc(C)c1-c1cc(Cl)c(C(=O)n2ccc3c(NC(=O)C4CC4)nccc32)c(Cl)c1` [Compound No. 87, N-{1-[2,6-Dichloro-4-(3,5-dimethyl-1,2-oxazol-4-yl)benzoyl]-1H-pyrrolo[3,2-c]pyridin-4-yl}cyclopropanecarboxamide], the values for the 50% inhibitory concentration (IC50) on JAK3, against JAK2 and on JAK1 were under 1000 nM, under 100 nM and under 500 nM, respectively.
On the same counts, the results for `N#Cc1cc(Cl)c(C(=O)n2ccc3cnccc32)c(Cl)c1` [Compound No. 95, 3,5-Dichloro-4-(1H-pyrrolo[3,2-c]pyridin-1-ylcarbonyl)benzonitrile] are under 500 nM, under 500 nM and under 1000 nM.
On the same counts, the results for `O=C(Nc1nccc2c1ccn2C(=O)c1c(Cl)cc(CO)cc1Cl)C1CC1` [Compound No. 96, N-{1-[2,6-Dichloro-4-(hydroxymethyl)benzoyl]-1H-pyrrolo[3,2-c]pyridin-4-yl}cyclopropanecarboxamide] are under 500 nM, under 500 nM and under 1000 nM.
On the same counts, the results for `O=C(O)CNC(=O)c1cc(Cl)c(C(=O)c2c[nH]c3c(NC(=O)C4CC4)nccc23)c(Cl)c1` [Compound No. 36, N-[3,5-Dichloro-4-({7-[(cyclopropylcarbonyl)amino]-1H-pyrrolo[2,3-c]pyridin-3-yl}carbonyl)benzoyl]glycine] are under 50 nM, under 100 nM and under 500 nM.
Take `O=C(NCCN1CCCCC1)c1cc(Cl)c(C(=O)c2c[nH]c3c(NC(=O)C4CC4)nccc23)c(Cl)c1` [Compound No. 34, 3,5-Dichloro-4-({7-[(cyclopropylcarbonyl)amino]-1H-pyrrolo[2,3-c]pyridin-3-yl}carbonyl)-N[2-(piperidin-1-yl)ethyl]benzamide]: the IC50 against JAK3, against JAK2 and against JAK1 was under 500 nM each time.
Turning to `CC(=O)Nc1cc(Cl)c(C(=O)c2c[nH]c3c(NC(=O)C4CC4)nccc23)c(Cl)c1` [Compound No. 27, N-{3-[4-(Acetylamino)-2,6-dichlorobenzoyl]-1H-pyrrolo[2,3-c]pyridin-7-yl}cyclopropanecarboxamide], the half-maximal inhibitory concentration (IC50) on JAK3 is under 100 nM; at JAK2, under 500 nM; against JAK1, under 1000 nM.
On the same counts, the results for `CNCc1cc(Cl)c(C(=O)n2ccc3c(NC(=O)C4CC4)nccc32)c(Cl)c1` [Compound No. 163, N-(1-{2,6-Dichloro-4-[(methylamino)methyl]benzoyl}-1H-pyrrolo[3,2-c]pyridin-4-yl)cyclopropanecarboxamide] are under 100 nM, under 500 nM and under 500 nM.
For `CNCc1cc(Cl)c(C(=O)c2c[nH]c3c(NC(=O)C4CC4)nccc23)c(Cl)c1` [Compound No. 66, N-(3-{2,6-Dichloro-4-[(methylamino)methyl]benzoyl}-1H-pyrrolo[2,3-c]pyridin-7-yl)cyclopropanecarboxamide], the values for the IC50 against JAK3, on JAK2 and against JAK1 were under 50 nM, under 100 nM and under 100 nM, respectively.
As for `O=C(NCCOCCO)c1cc(Cl)c(C(=O)c2c[nH]c3c(NC(=O)C4CC4)nccc23)c(Cl)c1` [Compound No. 29, 3,5-Dichloro-4-({7-[(cyclopropylcarbonyl)amino]-1H-pyrrolo[2,3-c]pyridin-3-yl}carbonyl)-N-[2-(2-hydroxyethoxy)ethyl]benzamide], the IC50 against JAK3 is under 500 nM; at JAK2, under 1000 nM; against JAK1 it was under 1000 nM.
Regarding `O=C(NC1CC1)c1cc(Cl)c(C(=O)c2c[nH]c3c(NC(=O)C4CC4)nccc23)c(Cl)c1` [Compound No. 54, 3,5-Dichloro-N-cyclopropyl-4-({7-[(cyclopropylcarbonyl)amino]-1H-pyrrolo[2,3-c]pyridin-3-yl}carbonyl)benzamide], the IC50 against JAK3, against JAK2 and on JAK1 was under 500 nM throughout.
As to `O=C(NCCCN1CCOCC1)c1cc(Cl)c(C(=O)c2c[nH]c3c(NC(=O)C4CC4)nccc23)c(Cl)c1` [Compound No. 31, 3,5-Dichloro-4-({7-[(cyclopropylcarbonyl)amino]-1H-pyrrolo[2,3-c]pyridin-3-yl}carbonyl)-N-[3-(morpholin-4-yl)propyl]benzamide], the IC50 was under 500 nM on JAK3, under 1000 nM on JAK2 and under 500 nM against JAK1.
With `O=C(NCC(O)CO)c1cc(Cl)c(C(=O)n2ccc3c(NC(=O)C4CC4)nccc32)c(Cl)c1` (stereo not drawn) [Compound No. 143, 3,5-Dichloro-4-({4-[(cyclopropylcarbonyl)amino]-1H-pyrrolo[3,2-c]pyridin-1-yl}carbonyl)-N-(2,3-dihydroxypropyl)benzamide], the figures for the concentration for half-maximal inhibition (IC50) against JAK3, against JAK2 and at JAK1 were under 50 nM, under 500 nM and under 1000 nM, respectively.
For the molecule `O=C(Nc1nccc2c1ccn2C(=O)c1c(Cl)cccc1Cl)C1CC1` [Compound No. 77, N-[1-(2,6-Dichlorobenzoyl)-1H-pyrrolo[3,2-c]pyridin-4-yl]cyclopropanecarboxamide], the IC50 at JAK3 is under 500 nM; against JAK2, under 500 nM; against JAK1 it was under 1000 nM.
As to `O=C(NCCCO)c1cc(Cl)c(C(=O)c2c[nH]c3c(NC(=O)C4CC4)nccc23)c(Cl)c1` [Compound No. 30, 3,5-Dichloro-4-({7-[(cyclopropylcarbonyl)amino]-1H-pyrrolo[2,3-c]pyridin-3-yl}carbonyl)-N-(3-hydroxypropyl)benzamide], the IC50 on JAK3, at JAK2 and on JAK1 was under 500 nM each time.
Consider `Nc1cc(Cl)c(C(=O)c2c[nH]c3c(NC(=O)C4CC4)nccc23)c(Cl)c1` [Compound No. 26, N-[3-(4-Amino-2,6-dichlorobenzoyl)-1H-pyrrolo[2,3-c]pyridin-7-yl]cyclopropanecarboxamide], for which the results for the half-maximal inhibitory concentration (IC50) at JAK3, on JAK2 and against JAK1 were under 100 nM, under 500 nM and under 500 nM, respectively.
`O=C(NCC(O)CO)c1cc(Cl)c(C(=O)c2c[nH]c3c(NC(=O)C4CC4)nccc23)c(Cl)c1` (stereo not drawn) [Compound No. 32, 3,5-Dichloro-4-({7-[(cyclopropylcarbonyl)amino]-1H-pyrrolo[2,3-c]pyridin-3-yl}carbonyl)-N-(2,3-dihydroxypropyl)benzamide]: the values for the IC50 at JAK3, on JAK2 and at JAK1 were under 50 nM, under 500 nM and under 500 nM, respectively.
With `O=C(Nc1nccc2c1ccn2C(=O)c1c(Cl)cc(CNCCCN2CCOCC2)cc1Cl)C1CC1` [Compound No. 166, N-{1-[2,6-Dichloro-4-({[3-(morpholin-4-yl)propyl]amino}methyl)benzoyl]-1H-pyrrolo[3,2-c]pyridin-4-yl}cyclopropanecarboxamide], the 50% inhibitory concentration (IC50) was under 500 nM on JAK3, under 1000 nM against JAK2 and under 500 nM at JAK1.
Consider `O=C(NCC1CC1)c1cc(Cl)c(C(=O)n2ccc3c(NC(=O)C4CC4)nccc32)c(Cl)c1` [Compound No. 170, 3,5-Dichloro-4-({4-[(cyclopropylcarbonyl)amino]-1H-pyrrolo[3,2-c]pyridin-1-yl}carbonyl)-N-(cyclopropylmethyl)benzamide], for which the concentration for half-maximal inhibition (IC50) against JAK3 is under 1000 nM; on JAK2, under 1000 nM; on JAK1 it was under 500 nM.
